Test results published in US9511045B2 (UNIVERSITE D'AUVERGNE CLERMONT I, priority 2010, dated 2016).

System: Male Sprague-Dawley rats
Conditions: 72 hours after IP injection of oxaliplatin
Method: Male Sprague-Dawley rats (Charles River Lab, France), weighing 175 to 200 grams, were placed in a cage with food and water ad libitum, in a temperature-controlled environment at 22° C. with a 12 h/12 h day/night cycle. The experiments were conducted under blind conditions in a calm room by the same experimenter, while taking care to comply with the regulations on animal experimentation.
This low-temperature immersion test made it possible to measure the hypersensitivity to cold in the animals. The bottom third of the rat's tail was immersed in a temperature-controlled bath 10° C. until it was removed or until the “cut-off” set at 30 seconds (Necker and Hellon. 1978 Pain. 4: 231-242).
The experimental data was analyzed using the software program Sigma STAT, version 3.0 for Windows (STAT32 Software Inc., San Diego, Calif.). The kinetics of the reaction times to the temperature-based stimulation were analyzed using a two-factor variance analysis followed by a multiple comparison test to study the change over time. […] The significance threshold was P<0.05.

## O=C(O)C(=O)O.[NH-][C@@H]1CCCC[C@H]1[NH-].[Pt+2] [oxaliplatin]
FIG. 1
  effect on cold sensitivity threshold (10° C.): reduced the cold sensitivity threshold
Tail immersed in water at 10° C., untreated rat around 12 seconds, cut-off 30 seconds
  time after which the rat removed its tail: 7 s
